Assay results published in ChEMBL document CHEMBL3217615, “Novel 3,5-bis(arylidiene)-4-piperidone based monocarbonyl analogs of curcumin: anticancer activity evaluation and mode of action study” (2014).

Key:
Type in all cases: functional
IGROV-1 [1] = experiment: Growth inhibition of human IGROV1 cells assessed as cell growth at 10^-6 M after 48 hrs by sulforhodamine B assay; details: IGROV-1, 48 h, read-out: Activity
SK-MEL-5 [2] = experiment: Growth inhibition of human SK-MEL-5 cells assessed as cell growth at 10^-6 M after 48 hrs by sulforhodamine B assay; details: SK-MEL-5, 48 h, read-out: Activity
[3] = Growth inhibition of human HCC2998 cells assessed as cell growth at 10^-6 M after 48 hrs by sulforhodamine B assay; details: HCC 2998, 48 h, read-out: Activity
[4] = Growth inhibition of human OVCAR4 cells assessed as cell growth at 10^-5 M after 48 hrs by sulforhodamine B assay; details: OVCAR-4, 48 h, read-out: Activity
[5] = Growth inhibition of human OVCAR5 cells assessed as cell growth at 10^-5 M after 48 hrs by sulforhodamine B assay; details: OVCAR-5, 48 h, read-out: Activity
[6] = Growth inhibition of human UACC62 cells assessed as cell growth at 10^-5 M after 48 hrs by sulforhodamine B assay; details: UACC-62, 48 h, read-out: Activity
Malme-3M = experiment: Growth inhibition of human MALME-3M cells assessed as cell growth at 10^-5 M after 48 hrs by sulforhodamine B assay; details: read-out: Activity
SNB-19 [7] = experiment: Growth inhibition of human SNB19 cells assessed as cell growth at 10^-5 M after 48 hrs by sulforhodamine B assay; details: SNB-19, 48 h, read-out: Activity
SNB-75 = experiment: Growth inhibition of human SNB75 cells assessed as cell growth at 10^-5 M after 48 hrs by sulforhodamine B assay; details: SNB-75, 48 h, read-out: Activity
[8] = Growth inhibition of human HCC2998 cells assessed as cell growth at 10^-5 M after 48 hrs by sulforhodamine B assay; details: HCC 2998, 48 h, read-out: Activity
NCI-H522 [9] = experiment: Growth inhibition of human NCI-H522 cells assessed as cell growth at 10^-5 M after 48 hrs by sulforhodamine B assay; details: NCI-H522, 48 h, read-out: Activity
NCI-H226 = experiment: Growth inhibition of human NCI-H226 cells assessed as cell growth at 10^-5 M after 48 hrs by sulforhodamine B assay; details: NCI-H226, 48 h, read-out: Activity
[10] = Growth inhibition of human HOP92 cells assessed as cell growth at 10^-5 M after 48 hrs by sulforhodamine B assay; details: HOP-92, 48 h, read-out: Activity
A549 = experiment: Growth inhibition of human A549/ATCC cells assessed as cell growth at 10^-5 M after 48 hrs by sulforhodamine B assay; details: A549, 48 h, read-out: Activity
RPMI-8226 = experiment: Growth inhibition of human RPMI8226 cells assessed as cell growth at 10^-5 M after 48 hrs by sulforhodamine B assay; details: RPMI-8226, 48 h, read-out: Activity
[11] = Growth inhibition of human MOLT4 cells assessed as cell growth at 10^-5 M after 48 hrs by sulforhodamine B assay; details: MOLT-4, 48 h, read-out: Activity
CCRF-CEM [12] = experiment: Growth inhibition of human CCRF-CEM cells assessed as cell growth at 10^-5 M after 48 hrs by sulforhodamine B assay; details: read-out: Activity
SNB-19 [13] = experiment: Growth inhibition of human SNB19 cells assessed as cell growth at 10^-4 M after 48 hrs by sulforhodamine B assay; details: SNB-19, 48 h, read-out: Activity
MDA-MB-231 = experiment: Growth inhibition of human MDA-MB-231 cells assessed as cell growth at 10^-5 M after 48 hrs by sulforhodamine B assay; details: MDA-MB-231, 48 h, read-out: Activity
DU-145 = experiment: Growth inhibition of human DU145 cells assessed as cell growth at 10^-5 M after 48 hrs by sulforhodamine B assay; details: DU-145, 48 h, read-out: Activity
PC-3 [14] = experiment: Growth inhibition of human PC3 cells assessed as cell growth at 10^-5 M after 48 hrs by sulforhodamine B assay; details: PC-3, 48 h, read-out: Activity
TK-10 = experiment: Growth inhibition of human TK10 cells assessed as cell growth at 10^-5 M after 48 hrs by sulforhodamine B assay; details: TK-10, 48 h, read-out: Activity
[15] = Growth inhibition of human RXF393 cells assessed as cell growth at 10^-5 M after 48 hrs by sulforhodamine B assay; details: RXF 393, 48 h, read-out: Activity
COLO 205 [16] = experiment: Induction of apoptosis in human COLO205 cells at 10 uM after 24 hrs by Annexin V/propidium iodide staining-based fluorescence microscopy
U-251 = experiment: Growth inhibition of human U251 cells assessed as cell growth at 10^-8 M after 48 hrs by sulforhodamine B assay; details: U-251, 48 h
COLO 205 [17] = experiment: Growth inhibition of human COLO205 cells assessed as cell growth at 10^-8 M after 48 hrs by sulforhodamine B assay; details: COLO 205, 48 h
IGROV-1 [18] = experiment: Growth inhibition of human IGROV1 cells after 48 hrs by sulforhodamine B assay; details: IGROV-1, 48 h
SK-MEL-5 [19] = experiment: Growth inhibition of human SK-MEL-5 cells after 48 hrs by sulforhodamine B assay; details: SK-MEL-5, 48 h
[20] = Growth inhibition of human HCT15 cells after 48 hrs by sulforhodamine B assay; details: HCT-15, 48 h
PC-3 [21] = experiment: Growth inhibition of human PC3 cells assessed as cell growth at 10^-4 M after 48 hrs by sulforhodamine B assay; details: PC-3, 48 h, read-out: Activity
[22] = Growth inhibition of human RXF393 cells assessed as cell growth at 10^-4 M after 48 hrs by sulforhodamine B assay; details: RXF 393, 48 h, read-out: Activity
COLO 205 [23] = experiment: Growth inhibition of human COLO205 cells assessed as cell growth at 10^-7 M after 48 hrs by sulforhodamine B assay; details: COLO 205, 48 h, read-out: Activity
NCI-H522 [24] = experiment: Growth inhibition of human NCI-H522 cells assessed as cell growth at 10^-7 M after 48 hrs by sulforhodamine B assay; details: NCI-H522, 48 h, read-out: Activity
SR = experiment: Growth inhibition of human SR cells assessed as cell growth at 10^-7 M after 48 hrs by sulforhodamine B assay; details: read-out: Activity
CCRF-CEM [25] = experiment: Growth inhibition of human CCRF-CEM cells assessed as cell growth at 10^-7 M after 48 hrs by sulforhodamine B assay; details: read-out: Activity
PC-3 [26] = experiment: Growth inhibition of human PC3 cells assessed as cell growth at 10^-8 M after 48 hrs by sulforhodamine B assay; details: PC-3, 48 h
[27] = read-out: LC50 (the source's name)

Cc1ccc(S(=O)(=O)N2C/C(=C\c3cc(F)cc(F)c3)C(=O)/C(=C/c3cc(F)cc(F)c3)C2)cc1
growth at 1 µM (IGROV-1 [1]): 18%
growth at 1 µM (SK-MEL-5 [2]): 3%
growth at 1 µM [3]: 35%
growth at 10 µM [4]: -31.4%
growth at 10 µM [5]: -65%
growth at 10 µM [6]: -96%
growth at 10 µM (Malme-3M): -75%
growth at 10 µM (SNB-19 [7]): -97%
growth at 10 µM (SNB-75): -41.6%
growth at 10 µM [8]: -89%
growth at 10 µM (NCI-H522 [9]): -84%
growth at 10 µM (NCI-H226): 47%
growth at 10 µM [10]: -51%
growth at 10 µM (A549): 7%
growth at 10 µM (RPMI-8226): -36%
growth at 10 µM [11]: -17%
growth at 10 µM (CCRF-CEM [12]): -23%
growth at 100 µM (SNB-19 [13]): -100%
growth at 10 µM (MDA-MB-231): -53%
growth at 10 µM (DU-145): -65%
growth at 10 µM (PC-3 [14]): -60.3%
growth at 10 µM (TK-10): -58%
growth at 10 µM [15]: -88%
Activity (COLO 205 [16]): 70%
GI50 (U-251): 186 nM
LC50 (U-251): 2040 nM
growth at 0.01 µM (U-251; read-out: Activity): 94%
TGI (U-251; read-out: pTGI (converted)): 525 nM
GI50 (COLO 205 [17]): 617 nM
LC50 (COLO 205 [17]): 6170 nM
growth at 0.01 µM (COLO 205 [17]; read-out: Activity): 107%
TGI (COLO 205 [17]; read-out: pTGI (converted)): 2090 nM
GI50 (IGROV-1 [18]): 436 nM
TGI (IGROV-1 [18]): 1550 nM
CC50 (IGROV-1 [18]; [27]): 5170 nM
GI50 (SK-MEL-5 [19]): 286 nM
TGI (SK-MEL-5 [19]): 1080 nM
CC50 (SK-MEL-5 [19]; [27]): 3600 nM
GI50 [20]: 250 nM
TGI [20]: 1300 nM
CC50 [20, 27]: 30700 nM
growth at 100 µM (PC-3 [21]): -84%
growth at 100 µM [22]: -95%
growth at 0.1 µM (COLO 205 [23]): 106%
growth at 0.1 µM (NCI-H522 [24]): 102%
growth at 0.1 µM (SR): 14%
growth at 0.1 µM (CCRF-CEM [25]): 44%
GI50 (PC-3 [26]): 245 nM
LC50 (PC-3 [26]): 9330 nM
growth at 0.01 µM (PC-3 [26]; read-out: Activity): 93%
TGI (PC-3 [26]; read-out: pTGI (converted)): 794 nM
